Assay results reported in patent publication US12221494B2, “Short synthetic peptides and their uses for treating retinal degenerative diseases and/or tissue injuries” (MacKay Memorial Hospital, priority 2019, dated 2025).

What was measured:
[1] = test system: Sprague-Dawley rats, retinal ischemia/reperfusion (I/R) injury; assay: Histological (H&E) evaluation of I/R-induced retinal injury (14 days); format: in vivo; conditions: rat, 14 days after I/R injury
Method: (§1) Experimental procedures were approved by the Mackay Memorial Hospital Review Board (Taiwan, R.O.C.). All surgeries were performed under aseptic conditions. Adult 10-week-old male Sprague-Dawley rats (initial body weight=312±11 g) were anesthetized by an intraperitoneal injection of xylazine (10 mg/kg). Peptide was dissolved in 0.85% normal saline to 1 mM and delivered by the subconjunctival injection of 100 μL peptide through a 31-Gneedle with a micro-syringe before the induction of I/R. Normal saline was as a vehicle control. Rat I/R was performed after peptide or vehicle injection for 4 h. Pupils were dilated with 0.5% tropicamide and 0.5% phenylephrine. Body temperature was maintained at 37° C. using a heating blanket After dilation of the pupil, the anterior chamber of the right eye was cannulated with a 27-gauge needle connected to a physiological saline reservoir. The intraocular pressure (IOP) was raised to 110 mmHg by keeping the reservoir at 150 cm above the eye, and retinal ischemia was confirmed by observing whitening of the iris and the loss of the red reflex of the retina. After 90 min of ischemia, the cannulating needle was withdrawn and the IOP was returned to normal pressure, resulting in recovery of the blood supply from the retinal artery and reperfusion injury induced. The reperfusion was evident by the return of the red reflex. Corneal analgesia was achieved using 1 or 2 drops of 0.4% oxybuprocaine hydrochloride, and Ofloxacin ophthalmic gel (0.3%) was applied topically to the eye before and after the procedure. Only the right eye was used in all experiments. A sham procedure was performed at left eye served as an intra-animal control.
Rats (n=6 in each group) were euthanized using an overdose of pentobarbital (intravenously 100 mg/kg of bodyweight) at 14 days after the I/R injury, the eyeballs were marked at the 12 o'clock position of the cornea with silk suture, and then enucleated and fixed in 4% paraformaldehyde(PFA) at 4° C. for 24 h. After fixation, the anterior segment was removed, and the posterior eyeball containing the optic disc was dehydrated in a graded ethanol series and embedded in paraffin. […] To quantify the degree of I/R damage in the retina, we measured the overall central retinal thicknesses (OT, between the GCL to ONL), the inner nuclear layer (INL), and the outer nuclear layer (ONL). The number of cells in the ganglion cell layer (GCL) was calculated using the linear cell density (cells per 200 μm). Three sections per eye were averaged and the mean of six eyes was recorded as the representative value for each group.

[2] = test system: Sprague-Dawley rats, retinal ischemia/reperfusion (I/R) injury; assay: TUNEL staining of I/R-injured rat retina (20 h); format: in vivo
Method: as §1
After I/R for 20 h, rats (n=6 in each group) were euthanized by an overdose of pentobarbital. Enucleated eyeballs were fixed in 4% PFA for 24 h at 4° C. Fixed retinal tissues were embedded in paraffin. To identify apoptosis of retinal cells, 5 μm sections thick cut through the optic disc, de-paraffinized, rehydrated, incubatedwith 20 μg/mL proteinase K for 10 min, and immunofluorescence staining of apoptotic cells was performed using a terminal deoxynucleotidyl transferase(TdT)-mediated dUTP nick-end labeling (TUNEL)-based kit (Roche Molecular Biochemicals, Indianapolis, IN) according to the manufacturer's instructions. Nuclei were located by counterstaining with Hoechst 33258 for 7 min Sections were observed under an epifluorescence microscope (Zeiss Axioplan 2 imaging; Zeiss, Oberkochen, Germany) equipped with a charge-coupled device (CCD) camera (Zeiss AxioCam HRm, Zeiss) (×400, 6 fields/sample), and quantification was performed using Axiovert software (Zeiss AxioVision Release 4.8.2, Zeiss). Three sections per eye were averaged and the mean of six eyes was recorded as the representative value for each group.
In this example, the neuroprotective effect of the 6-mer variant peptides on neural retina cells and retinal capillary system was investigated using a rat model of I/R injury described in the “Material and Methods” section. Briefly, 6-mer variant peptide (1 mM, 120 μl) was injected into the subconjunctival space of Sprague-Dawley rats for 4 h before the induction of I/R. Then, I/R injury was induced in rat retinas by increasing the intraocular pressure (IOP) in the eye to 110 mmHg for 90 min, followed by 20 h of reperfusion. Subsequently, the level of retinal cell apoptosis was evaluated using TUNEL staining. In addition, the retinal morphology was analyzed with H&E staining 14 days after the I/R injury. Results are summarized in FIGS. 6 to 10, and Tables 6 to 9.

## NH2-(D-Ser)-Leu-Gly-Ala-Glu-Gln-COOH (SLGAEQ; HELM PEPTIDE1{[dS].L.G.A.E.Q}$$$$V2.0; SMILES CC(C)C[C@H](NC(=O)[C@H](N)CO)C(=O)NCC(=O)N[C@@H](C)C(=O)N[C@@H](CCC(=O)O)C(=O)N[C@@H](CCC(N)=O)C(=O)O) [6-mer dS]
[1]; H&E, Control 70.7 ± 2.4, Vehicle + I/R 51.6 ± 0.8
  INL Thickness: 71.3 ± 7.5 μm
[1]; H&E, Control 139.8 ± 4.2, Vehicle + I/R 125.8 ± 4.5
  ONL Thickness: 133.4 ± 7.7 μm
[1]; H&E, Control 326.2 ± 9.4, Vehicle + I/R 260.8 ± 7.1
  Total Thickness (From GCL to INL): 308.9 ± 11.2 μm
[1]; single subconjunctival injection
  overall retinal thickness, in words: improved the overall retinal thickness to a level similar to that in the shame control group
[2]; subconjunctival injection 1 mM 4 h before I/R, 20 hours after I/R injury, Vehicle + I/R 27.2 ± 2.7
  Number of TUNEL-positive cells in retina: 7.8 ± 1.5 /200 μm
[2]; subconjunctival injection prior to I/R, 20 h reperfusion
  I/R-induced retinal cell apoptosis (TUNEL staining), in words: only smaller numbers of green fluorescent nuclei
